From patent publication US8765679B2, “Extract and peptides derived from Oryza sativa Japonica Group and uses thereof” (Yissum Research Development Company of The Hebrew …, priority 2010, dated 2014)
Entries after “also recorded” stand apart in the source; their conditions may differ.

Columns and labels:
EAE mice = assay: Experimental autoimmune encephalitis (EAE) induced with MOG peptide 35-55, neurological score; format: in vivo, Female C57BL/6 mice; settings: for neurological score / neurological symptoms: oral 100 μg/kg, FIG. 2C, FIG. 3
Murine naïve CD4 cells = assay: Cytokine profile of RA1-treated CD4 cells (ELISA of supernatants); format: cell-based; settings: anti-CD3/anti-CD28/IL2-activated CD4 cells, supernatants at 72 h
Method: Murine lymph nodes and/or spleens were mashed, harvested and single cell suspension was passed through a […] cell strainer and washed. Murine naïve CD4 cells were MACS separated using Miltenyi CD4 beads (Miltenyi Biotec GmbH, Bergisch Gladbach, ermany) according to manufacture instructions. Isolated T cells were seeded and activated with anti-CD3 […] and anti-CD28 […] (BD Biosciences, San Jose, Calif., USA) in the presence of IL2 (10 U/ml), (PeproTech Inc, Rocky Hill, N.J., USA). For cytokine production and RA1 determination supernatants were collected for ELISA. Cytokine analysis was performed in supernatants at 72 h using commercial kits: IFNγ, IL12 and IL4 (Perpotech), IL-17 (R&D systems) and IL10 (BD Biosciences).

[1] = system: mouse peritoneal macrophages; assay: Oxidative burst of PMA-activated peritoneal macrophages (luminescence); format: cell-based; settings: for oxidative burst in activated macrophages (luminescence): added 1 minute after PMA, FIG. 6
Method: Mice were injected i.p. with thioglycolate. Peritoneal macrophages were obtained and incubated with horse-reddish peroxidase and luminol. The reaction started by the addition of phorbol myristate acetate (PMA) and 1 minute later RA1 was added. Luminescence measurement was started after PMA addition. Each cycle represents 74 seconds.
Mice were injected ip with 1.5 ml thioglycolate (29.8 g/l). Peritoneal macrophages were obtained and incubated (2.5×10^6 cells/ml) in HBSS with 2 μl of 1 mM CoCl2, 2 μl 100 mM Na2SeO3, 2 μl of 10 mM luminal. The reaction started by the addition of 5 μl of 100 μM phorbol myristate acetate (PMA) (final concentration of 2.5 μM) and one minute later RA1 was added. Luminescence measurement was started after PMA addition. Each cycle represents 74 seconds.

[2] = system: carrageenan-induced hind paw swelling; assay: Carrageenan-induced hind paw swelling; format: in vivo; settings: 30 minutes prior to carrageenan, FIG. 5
Method: RA1 or saline were injected 30 minutes prior to carrageenan injection into the subplantar area. The diameter of the subplantar area was measured every 60 minutes by a micrometer. […] The effect of RA1 was tested in an animal model for inflammation. Inflammation induced by carrageenan, is acute, well-researched, and highly reproducible. Cardinal signs of inflammation edema, hyperalgesia, and erythema develop immediately following subcutaneous injection, resulting from action of proinflammatory agents bradykinin, histamine, tachykinins, complement and reactive oxygen, and nitrogen species. The inflammatory response is usually quantified by increase in paw size (edema). RA1 or its vehicle, i.e., saline, was injected ip 30 minutes prior to carrageenan treatment. Carrageenan (50 μl of 3 mg/ml) was injected into the subplantar area of both limbs of each animal. The diameter of the subplantar area was measured every 60 minutes by a micrometer. The degree of swelling was assessed by the difference between thicknesses measured after and prior to carrageenan injection (zero time).

experimental model of MS = settings: intravenous and oral administrations; cited from earlier work
[3] = 3 times a week, starting 7 days after MOG immunization

For “AEMIDLAAKMLSEG (ORYZA SATIVA JAPONICA) [RA4]”, the “neurological score / neurological symptoms” value (EAE mice; [3]) was “reduction of the neurological score”.
With “AEMIDLAAKMLSEGR (ORYZA SATIVA JAPONICA) [RA3]” the “neurological score / neurological symptoms” value (EAE mice; [3]) was “reduction of the neurological score”.
In the case of “AEMIDLAAKMLSEGRG (ORYZA SATIVA JAPONICA) [RA1, 16-mer peptide, amino acid residues 217-232 of Oryza sativa Japonica Group]”, the IFNγ production (Murine naïve CD4 cells; FIG. 10A) is reported as “reduction”, the IL17 production (Murine naïve CD4 cells; FIG. 10B) is reported as “reduction” and the IL4 production (Murine naïve CD4 cells; FIG. 10C) is reported as “elevation”. The IL10 production (Murine naïve CD4 cells; FIG. 10D) was “elevation”, the “oxidative burst in activated macrophages (luminescence)” value (shortened to “oxidative burst”) ([1]; 0.1 ng/ml) was “less effective” and the “oxidative burst” value ([1]; 1.0 ng/ml) was “less effective”. The “oxidative burst” value ([1]; 10 ng/ml) was “strongly inhibited”, the hydroxyl radical scavenger ([1]; summary statement referring to Example 6) was “highly effective” and the “swelling induced after the carrageenan injection” value ([2]; one dose 1.0 μg/kg ip) was “significantly reduced”. The “swelling induced after the carrageenan injection” value ([2]; one dose 10 μg/kg ip) was “significantly reduced”, the neurological score (EAE mice; i.p. 0.1 μg/kg, three times a week, starting seven days after MOG immunization, FIG. 4) was “an increased effect” and the neurological score (EAE mice; i.v., once on the day of MOG immunization, FIG. 2A) was “significantly improved”. For the same sequence, the “neurological score / neurological symptoms” value (EAE mice; [3]) was “beneficial in reducing the neurological symptoms; also recorded: an increased effect”.
With “EMIDLAAKMLSEGRG (ORYZA SATIVA JAPONICA) [RA2]” the neurological score (EAE mice; i.p. 1 μg/kg, 3 times a week, starting 7 days after MOG immunization, FIG. 2B, FIG. 4) was “reduction of the neurological score”.
For “KGHYAERVG (listed as Homo sapiens) [IIIM1, 9-mer peptide derived from human histone H2A]”, the “neurological symptoms in the diseased mice” value (experimental model of MS) is given as “significantly ameliorated the neurological symptoms”.
